From article PMC10175918 (Communications Biology, 2023)
Read-outs that look alike come from different tables or passages of the source.

Assays:
Assay in all cases: TGFα-shedding assay-based GPCR screening with chimeric Gα subunit proteins
Assay type in all cases: cell-based
348 GPCRs [1] = biological target: T1, 348 GPCRs (Homo sapiens, UniProt Q9Y5Y4); settings: 10µM, Favipiravir 100μM
T1 construct: expressed in transfected cells; host or cells: HEK293A
T1 sequence (Q9Y5Y4 1-395): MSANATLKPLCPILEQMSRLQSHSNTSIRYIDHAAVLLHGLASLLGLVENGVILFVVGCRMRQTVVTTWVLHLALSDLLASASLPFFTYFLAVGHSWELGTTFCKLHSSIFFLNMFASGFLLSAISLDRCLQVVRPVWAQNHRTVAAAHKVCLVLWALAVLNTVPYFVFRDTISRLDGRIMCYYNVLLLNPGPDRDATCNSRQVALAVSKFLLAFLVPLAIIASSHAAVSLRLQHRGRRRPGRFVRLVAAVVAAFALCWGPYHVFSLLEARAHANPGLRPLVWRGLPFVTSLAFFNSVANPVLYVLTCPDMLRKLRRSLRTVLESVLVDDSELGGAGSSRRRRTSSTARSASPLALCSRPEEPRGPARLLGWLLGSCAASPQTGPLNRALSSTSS

348 GPCRs [2] = biological target: T2, 348 GPCRs (Homo sapiens, UniProt Q7Z7M1); settings: 10µM, Favipiravir 100μM
T2 construct: expressed in transfected cells; host or cells: HEK293A
T2 sequence (Q7Z7M1 whole entry): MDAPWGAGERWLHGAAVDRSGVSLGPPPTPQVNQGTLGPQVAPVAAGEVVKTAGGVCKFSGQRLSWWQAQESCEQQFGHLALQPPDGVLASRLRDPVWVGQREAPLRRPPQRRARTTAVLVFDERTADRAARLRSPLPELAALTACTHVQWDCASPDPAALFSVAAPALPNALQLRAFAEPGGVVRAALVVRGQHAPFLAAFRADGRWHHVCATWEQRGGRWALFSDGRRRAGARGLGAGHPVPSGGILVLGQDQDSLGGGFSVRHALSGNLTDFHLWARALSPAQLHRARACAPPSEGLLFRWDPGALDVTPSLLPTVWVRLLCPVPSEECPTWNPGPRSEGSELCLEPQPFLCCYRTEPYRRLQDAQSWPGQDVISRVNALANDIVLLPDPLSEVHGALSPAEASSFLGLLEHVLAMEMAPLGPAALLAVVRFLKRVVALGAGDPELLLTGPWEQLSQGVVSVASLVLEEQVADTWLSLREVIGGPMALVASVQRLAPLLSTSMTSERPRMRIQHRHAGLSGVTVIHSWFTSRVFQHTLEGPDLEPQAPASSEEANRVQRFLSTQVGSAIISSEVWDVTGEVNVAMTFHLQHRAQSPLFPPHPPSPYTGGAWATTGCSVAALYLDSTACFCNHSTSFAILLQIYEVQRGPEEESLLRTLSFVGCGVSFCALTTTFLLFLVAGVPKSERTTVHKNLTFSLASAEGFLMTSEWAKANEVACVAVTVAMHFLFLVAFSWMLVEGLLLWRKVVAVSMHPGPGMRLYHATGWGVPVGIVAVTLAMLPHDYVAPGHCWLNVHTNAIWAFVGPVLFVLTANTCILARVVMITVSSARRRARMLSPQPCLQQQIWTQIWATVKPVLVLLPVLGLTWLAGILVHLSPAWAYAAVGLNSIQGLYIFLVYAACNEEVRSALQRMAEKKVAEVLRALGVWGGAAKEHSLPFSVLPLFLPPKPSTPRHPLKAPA

348 GPCRs [3] = biological target: T3, 348 GPCRs (Homo sapiens, UniProt P47901)
T3 construct: expressed in transfected cells; host or cells: HEK293A
T3 sequence (P47901 1-424): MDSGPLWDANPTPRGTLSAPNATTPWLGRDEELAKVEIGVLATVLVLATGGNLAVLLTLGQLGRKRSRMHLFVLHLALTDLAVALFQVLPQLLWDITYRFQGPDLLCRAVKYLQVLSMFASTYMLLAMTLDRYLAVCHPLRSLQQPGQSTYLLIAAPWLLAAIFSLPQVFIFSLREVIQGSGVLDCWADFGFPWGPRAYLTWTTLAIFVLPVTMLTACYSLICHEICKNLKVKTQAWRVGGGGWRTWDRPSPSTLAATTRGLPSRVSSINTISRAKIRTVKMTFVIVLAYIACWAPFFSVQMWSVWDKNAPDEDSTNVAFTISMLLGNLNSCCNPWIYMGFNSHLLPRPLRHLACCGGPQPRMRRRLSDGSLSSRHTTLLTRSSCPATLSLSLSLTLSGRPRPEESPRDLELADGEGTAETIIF

348 GPCRs [4] = biological target: T4, 348 GPCRs (Homo sapiens, UniProt P32239); settings: 10µM, Favipiravir 100μM
T4 sequence (P32239 1-447): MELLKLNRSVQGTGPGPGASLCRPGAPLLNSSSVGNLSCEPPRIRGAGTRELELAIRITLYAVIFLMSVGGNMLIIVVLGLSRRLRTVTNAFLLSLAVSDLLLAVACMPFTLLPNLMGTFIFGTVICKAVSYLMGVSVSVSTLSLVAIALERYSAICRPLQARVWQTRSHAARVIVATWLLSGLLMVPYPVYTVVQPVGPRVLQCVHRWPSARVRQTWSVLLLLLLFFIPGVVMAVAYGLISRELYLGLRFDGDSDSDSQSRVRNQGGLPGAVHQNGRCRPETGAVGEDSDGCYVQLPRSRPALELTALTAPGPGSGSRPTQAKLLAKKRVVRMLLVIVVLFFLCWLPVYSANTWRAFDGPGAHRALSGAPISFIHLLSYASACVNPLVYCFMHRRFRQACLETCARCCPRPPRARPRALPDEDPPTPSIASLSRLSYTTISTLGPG

348 GPCRs [5] = biological target: T5, 348 GPCRs (Homo sapiens, UniProt Q99677); settings: LPAR4 (lysophosphatidic acid receptor 4); 10µM, Favipiravir 100μM
T5 construct: expressed in transfected cells; host or cells: HEK293A
T5 sequence (Q99677 whole entry): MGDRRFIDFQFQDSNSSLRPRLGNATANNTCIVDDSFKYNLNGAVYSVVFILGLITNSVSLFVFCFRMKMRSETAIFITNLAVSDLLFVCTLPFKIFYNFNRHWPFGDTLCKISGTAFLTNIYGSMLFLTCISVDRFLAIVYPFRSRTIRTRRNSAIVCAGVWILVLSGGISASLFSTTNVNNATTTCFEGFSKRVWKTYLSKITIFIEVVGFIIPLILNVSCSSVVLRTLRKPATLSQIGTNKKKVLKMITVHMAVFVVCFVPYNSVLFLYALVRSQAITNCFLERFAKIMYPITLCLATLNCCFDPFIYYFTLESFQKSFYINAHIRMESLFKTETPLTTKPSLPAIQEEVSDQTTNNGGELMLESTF

348 GPCRs [6] = biological target: T6, 348 GPCRs (Homo sapiens, UniProt O14843); settings: 10µM, Favipiravir 100μM
T6 construct: expressed in transfected cells; host or cells: HEK293A
T6 sequence (O14843 1-346): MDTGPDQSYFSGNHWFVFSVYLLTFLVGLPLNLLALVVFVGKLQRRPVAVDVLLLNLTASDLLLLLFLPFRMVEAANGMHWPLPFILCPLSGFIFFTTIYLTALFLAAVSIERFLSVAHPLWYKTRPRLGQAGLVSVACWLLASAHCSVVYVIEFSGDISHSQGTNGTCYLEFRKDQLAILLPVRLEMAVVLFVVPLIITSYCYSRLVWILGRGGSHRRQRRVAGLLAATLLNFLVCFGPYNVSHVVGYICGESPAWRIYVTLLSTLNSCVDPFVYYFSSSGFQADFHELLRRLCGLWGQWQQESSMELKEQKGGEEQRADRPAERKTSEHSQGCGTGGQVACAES

348 GPCRs [7] = biological target: 348 GPCRs (Homo sapiens, UniProt P41145); settings: read-out: % GPCR activation compared to TPA, OPRK1 (opioid receptor, kappa 1 (KOR)); 10µM, Favipiravir 100μM
Sequence of 348 GPCRs (Homo sapiens, UniProt P41145) (P41145 whole entry): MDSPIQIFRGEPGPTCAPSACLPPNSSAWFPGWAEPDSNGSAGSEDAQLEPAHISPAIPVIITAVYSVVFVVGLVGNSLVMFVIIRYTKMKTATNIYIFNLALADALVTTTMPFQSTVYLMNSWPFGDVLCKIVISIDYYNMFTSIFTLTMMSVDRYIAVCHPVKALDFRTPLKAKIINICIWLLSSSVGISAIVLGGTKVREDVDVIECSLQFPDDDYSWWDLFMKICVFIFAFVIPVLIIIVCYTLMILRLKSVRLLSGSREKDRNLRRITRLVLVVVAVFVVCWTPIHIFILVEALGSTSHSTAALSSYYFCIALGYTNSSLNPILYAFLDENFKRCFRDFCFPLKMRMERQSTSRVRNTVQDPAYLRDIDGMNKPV

348 GPCRs [8] = biological target: T7, 348 GPCRs (Homo sapiens, UniProt Q03431); settings: 10µM, Favipiravir 100μM
T7 sequence (Q03431 27-593): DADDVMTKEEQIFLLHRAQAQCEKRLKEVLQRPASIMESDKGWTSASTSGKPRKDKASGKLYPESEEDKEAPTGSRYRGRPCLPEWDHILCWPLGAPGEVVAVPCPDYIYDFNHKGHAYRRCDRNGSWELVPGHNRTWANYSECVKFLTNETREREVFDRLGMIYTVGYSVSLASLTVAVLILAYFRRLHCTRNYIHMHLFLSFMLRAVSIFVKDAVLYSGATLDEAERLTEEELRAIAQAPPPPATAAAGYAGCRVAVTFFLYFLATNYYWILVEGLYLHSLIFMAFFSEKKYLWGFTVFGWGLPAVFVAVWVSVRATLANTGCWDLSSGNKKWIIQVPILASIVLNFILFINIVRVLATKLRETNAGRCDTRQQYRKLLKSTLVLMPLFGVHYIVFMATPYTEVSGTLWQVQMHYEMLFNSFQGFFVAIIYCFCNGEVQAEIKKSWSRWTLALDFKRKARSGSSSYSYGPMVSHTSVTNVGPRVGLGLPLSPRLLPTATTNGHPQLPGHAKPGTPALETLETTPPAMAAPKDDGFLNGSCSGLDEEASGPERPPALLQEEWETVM

[9] = DP2 (prostaglandin D2 receptor 2), read-out: % GPCR activation compared to TPA
[10] = GPR144 (Adhesion G Protein-Coupled Receptor D2 (ADGRD2)), read-out: % GPCR activation compared to TPA
[11] = GPCR V1B (arginine vasopressin receptor 1B), read-out: % GPCR activation compared to TPA
[12] = CCKBR (cholecystokinin B receptor), read-out: % GPCR activation compared to TPA
[13] = FFA3 (free fatty acid receptor 3), read-out: % GPCR activation compared to TPA
[14] = PTH1R (parathyroid hormone 1 receptor), read-out: % GPCR activation compared to TPA
[15] = read-out: % GPCR activation compared to TPA, DP2 (prostaglandin D2 receptor 2)
[16] = read-out: % GPCR activation compared to TPA, GPR144 (Adhesion G Protein-Coupled Receptor D2 (ADGRD2))
[17] = read-out: % GPCR activation compared to TPA, GPCR V1B (arginine vasopressin receptor 1B)
[18] = read-out: % GPCR activation compared to TPA, CCKBR (cholecystokinin B receptor)
[19] = read-out: % GPCR activation compared to TPA, FFA3 (free fatty acid receptor 3)
[20] = read-out: % GPCR activation compared to TPA, PTH1R (parathyroid hormone 1 receptor)

SMILES | activation at 100 µM (348 GPCRs [1]; [9]) [%] | activation at 100 µM (348 GPCRs [2]; [10]) [%] | activation at 10 µM (348 GPCRs [3]; [11]) [%] | activation at 100 µM (348 GPCRs [4]; [12]) [%] | % GPCR activation compared to TPA (348 GPCRs [5]) [%] | activation at 10 µM (348 GPCRs [6]; [13]) [%] | activation at 100 µM (348 GPCRs [7]) [%] | activation at 100 µM (348 GPCRs [8]; [14]) [%] | activation at 100 µM (348 GPCRs [3]; GPCR V1B (arginine vasopressin receptor 1B), 100μM, read-out: % GPCR activation compared to TPA) [%] | activation at 100 µM (348 GPCRs [1]; [15]) [%] | activation at 100 µM (348 GPCRs [2]; [16]) [%] | activation at 10 µM (348 GPCRs [3]; [17]) [%] | activation at 100 µM (348 GPCRs [4]; [18]) [%] | activation at 10 µM (348 GPCRs [6]; [19]) [%] | activation at 100 µM (348 GPCRs [8]; [20]) [%]
N#C[C@@]1(c2ccc3c(N)ncnn23)O[C@H](CO)[C@@H](O)[C@H]1O [GS441524] | -0.745 | -0.695 | 0.627 | 6.14 | 1.193 | -0.449 | -1.93 | -0.479 |  |  |  |  |  |  | 
CCC(CC)COC(=O)[C@H](C)N[P@](=O)(OC[C@H]1O[C@@](C#N)(c2ccc3c(N)ncnn23)[C@H](O)[C@@H]1O)Oc1ccccc1 [remdesivir] |  |  |  |  | -0.0834 |  | 6.17 |  |  | 1.87 | 0.938 | 1.47 | 7.72 | 4.74 | 0.414
CC(C)OC(=O)[C@H](C)N[P@](=O)(OC[C@H]1O[C@@H](n2ccc(=O)[nH]c2=O)[C@](C)(F)[C@@H]1O)Oc1ccccc1 [sofosbuvir] |  |  |  |  | 3.133 |  | -1.11 |  |  | 0.675 | 0.00791 | -0.149 | -2.44 | 0.217 | 1.23

Further lines, with some results ahead:

activation at 100 µM (348 GPCRs [1]; [9]) [%] | activation at 100 µM (348 GPCRs [2]; [10]) [%] | activation at 10 µM (348 GPCRs [3]; [11]) [%] | activation at 100 µM (348 GPCRs [4]; [12]) [%] | % GPCR activation compared to TPA (348 GPCRs [5]) [%] | activation at 10 µM (348 GPCRs [6]; [13]) [%] | activation at 100 µM (348 GPCRs [7]) [%] | activation at 100 µM (348 GPCRs [8]; [14]) [%] | activation at 100 µM (348 GPCRs [3]; GPCR V1B (arginine vasopressin receptor 1B), 100μM, read-out: % GPCR activation compared to TPA) [%] | SMILES | activation at 100 µM (348 GPCRs [1]; [15]) [%] | activation at 100 µM (348 GPCRs [2]; [16]) [%] | activation at 10 µM (348 GPCRs [3]; [17]) [%] | activation at 100 µM (348 GPCRs [4]; [18]) [%] | activation at 10 µM (348 GPCRs [6]; [19]) [%] | activation at 100 µM (348 GPCRs [8]; [20]) [%]
0.119 | -0.934 |  | 4.12 | -0.5456 | -0.552 | -1.65 | -0.775 | 1.12 | NC(=O)c1nc(F)cnc1O [favipiravir, 6-fluoro-3-hydroxy-2-pyrazinecarboxamide] |  |  |  |  |  | 
0.374 | -1.45 | -0.66 | -2.83 | -0.2125 | -0.0973 | -1.39 | -0.633 |  | CC(C)C(=O)OC[C@H]1O[C@@H](n2ccc(NO)nc2=O)[C@H](O)[C@@H]1O [molnupiravir] |  |  |  |  |  | 
